Reference: patent US20240269139A1, “COMPOUNDS FOR TARGETED PROTEIN DEGRADATION OF KINASES” (DANA-FARBER CANCER INSTITUTE, INC., priority 2020, published 2024)
Like-named read-outs stand apart in the source and are kept apart here.

Columns and labels:
Type in all cases: cell-based
[1] = target: protein kinases (human kinome) (Homo sapiens, UniProt P35790); details: CHKA P35790
[2] = target: T1, protein kinases (human kinome) (Homo sapiens, UniProt Q9UIG0); details: BAZ1B (Q9UIG0)
T1 sequence (Q9UIG0 1-1483): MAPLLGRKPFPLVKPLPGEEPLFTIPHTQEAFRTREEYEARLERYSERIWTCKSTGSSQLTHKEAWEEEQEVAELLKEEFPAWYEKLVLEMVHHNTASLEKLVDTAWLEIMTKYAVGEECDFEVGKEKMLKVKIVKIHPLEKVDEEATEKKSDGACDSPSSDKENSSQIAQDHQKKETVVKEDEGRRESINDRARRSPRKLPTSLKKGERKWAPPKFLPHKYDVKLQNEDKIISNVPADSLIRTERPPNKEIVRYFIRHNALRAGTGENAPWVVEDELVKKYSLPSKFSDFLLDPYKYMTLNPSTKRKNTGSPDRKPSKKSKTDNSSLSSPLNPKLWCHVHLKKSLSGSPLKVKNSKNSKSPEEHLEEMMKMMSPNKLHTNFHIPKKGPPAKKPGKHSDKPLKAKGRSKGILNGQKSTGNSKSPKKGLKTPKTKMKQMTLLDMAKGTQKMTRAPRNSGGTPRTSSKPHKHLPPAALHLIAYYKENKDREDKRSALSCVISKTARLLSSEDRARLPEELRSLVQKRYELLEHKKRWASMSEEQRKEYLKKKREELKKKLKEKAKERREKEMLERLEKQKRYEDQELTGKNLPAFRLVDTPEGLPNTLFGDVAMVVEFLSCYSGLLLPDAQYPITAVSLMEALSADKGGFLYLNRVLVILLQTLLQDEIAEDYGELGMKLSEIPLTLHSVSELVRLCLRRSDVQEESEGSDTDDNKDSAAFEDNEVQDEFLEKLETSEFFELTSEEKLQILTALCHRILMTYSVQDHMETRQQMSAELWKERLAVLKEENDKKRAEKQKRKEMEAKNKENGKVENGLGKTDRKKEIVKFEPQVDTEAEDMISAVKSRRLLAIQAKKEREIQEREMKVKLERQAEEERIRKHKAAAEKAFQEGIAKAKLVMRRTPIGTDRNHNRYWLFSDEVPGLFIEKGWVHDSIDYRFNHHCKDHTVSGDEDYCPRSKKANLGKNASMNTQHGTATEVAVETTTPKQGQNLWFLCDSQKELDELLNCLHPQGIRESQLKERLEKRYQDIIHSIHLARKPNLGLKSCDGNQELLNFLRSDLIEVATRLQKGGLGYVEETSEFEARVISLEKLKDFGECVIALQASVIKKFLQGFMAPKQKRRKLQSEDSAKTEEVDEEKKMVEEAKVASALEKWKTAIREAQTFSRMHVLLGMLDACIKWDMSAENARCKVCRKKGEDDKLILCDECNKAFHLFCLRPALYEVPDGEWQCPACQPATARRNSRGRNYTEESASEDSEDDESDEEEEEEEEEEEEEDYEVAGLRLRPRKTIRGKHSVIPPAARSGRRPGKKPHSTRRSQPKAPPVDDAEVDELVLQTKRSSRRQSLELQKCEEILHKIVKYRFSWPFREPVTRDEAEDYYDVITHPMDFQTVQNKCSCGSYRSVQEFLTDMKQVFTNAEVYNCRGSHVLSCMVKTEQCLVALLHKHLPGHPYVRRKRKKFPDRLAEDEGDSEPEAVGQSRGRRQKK

[3] = target: T2, protein kinases (human kinome) (Homo sapiens, UniProt Q6PHR2); details: for logFC ULK3: ULK3 (Q6PHR2-1)
T2 sequence (Q6PHR2 1-472): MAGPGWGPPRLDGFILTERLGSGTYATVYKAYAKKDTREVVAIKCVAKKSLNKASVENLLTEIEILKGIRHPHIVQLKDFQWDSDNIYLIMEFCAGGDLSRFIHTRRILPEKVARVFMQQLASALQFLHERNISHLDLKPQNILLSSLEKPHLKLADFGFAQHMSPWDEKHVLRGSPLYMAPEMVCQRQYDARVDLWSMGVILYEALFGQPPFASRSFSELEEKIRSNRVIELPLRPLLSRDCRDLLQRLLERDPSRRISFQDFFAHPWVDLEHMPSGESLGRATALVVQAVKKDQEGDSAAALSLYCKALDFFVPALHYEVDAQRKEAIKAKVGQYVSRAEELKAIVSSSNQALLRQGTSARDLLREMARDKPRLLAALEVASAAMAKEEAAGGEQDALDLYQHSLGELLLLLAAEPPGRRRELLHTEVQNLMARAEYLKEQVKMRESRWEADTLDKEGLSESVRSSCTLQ

[4] = target: protein kinases (human kinome) (Homo sapiens, UniProt P06493); details: CDK1 P06493
Chain of protein kinases (human kinome) (Homo sapiens, UniProt P06493) (P06493 whole entry): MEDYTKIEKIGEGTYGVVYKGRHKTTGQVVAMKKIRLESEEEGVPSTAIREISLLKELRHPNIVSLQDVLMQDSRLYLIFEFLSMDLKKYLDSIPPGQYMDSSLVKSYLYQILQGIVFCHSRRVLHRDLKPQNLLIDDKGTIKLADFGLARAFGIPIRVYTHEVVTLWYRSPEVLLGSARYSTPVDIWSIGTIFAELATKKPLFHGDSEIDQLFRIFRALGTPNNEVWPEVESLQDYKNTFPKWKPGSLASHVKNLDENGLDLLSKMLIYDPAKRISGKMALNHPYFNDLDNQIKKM

[5] = target: protein kinases (human kinome) (Homo sapiens, UniProt Q9BYT3); details: STK33 (Q9BYT3-1)
Chain of protein kinases (human kinome) (Homo sapiens, UniProt Q9BYT3) (Q9BYT3 whole entry): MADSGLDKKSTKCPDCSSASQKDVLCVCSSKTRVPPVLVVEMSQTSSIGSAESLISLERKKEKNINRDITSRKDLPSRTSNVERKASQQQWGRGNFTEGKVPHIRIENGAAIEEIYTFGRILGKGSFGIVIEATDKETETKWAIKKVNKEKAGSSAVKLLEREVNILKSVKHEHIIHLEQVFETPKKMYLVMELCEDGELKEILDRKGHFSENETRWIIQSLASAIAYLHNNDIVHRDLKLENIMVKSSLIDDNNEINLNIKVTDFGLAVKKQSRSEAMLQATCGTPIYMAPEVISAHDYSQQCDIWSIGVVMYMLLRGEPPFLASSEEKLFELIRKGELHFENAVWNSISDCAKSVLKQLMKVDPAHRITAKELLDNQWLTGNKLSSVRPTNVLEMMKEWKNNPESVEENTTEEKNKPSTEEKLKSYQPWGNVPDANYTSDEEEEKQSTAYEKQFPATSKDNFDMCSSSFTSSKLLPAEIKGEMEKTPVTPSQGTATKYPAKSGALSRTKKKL

[6] = experiment wp146, direction down

Chain of protein kinases (human kinome) (Homo sapiens, UniProt P35790) (P35790 whole entry): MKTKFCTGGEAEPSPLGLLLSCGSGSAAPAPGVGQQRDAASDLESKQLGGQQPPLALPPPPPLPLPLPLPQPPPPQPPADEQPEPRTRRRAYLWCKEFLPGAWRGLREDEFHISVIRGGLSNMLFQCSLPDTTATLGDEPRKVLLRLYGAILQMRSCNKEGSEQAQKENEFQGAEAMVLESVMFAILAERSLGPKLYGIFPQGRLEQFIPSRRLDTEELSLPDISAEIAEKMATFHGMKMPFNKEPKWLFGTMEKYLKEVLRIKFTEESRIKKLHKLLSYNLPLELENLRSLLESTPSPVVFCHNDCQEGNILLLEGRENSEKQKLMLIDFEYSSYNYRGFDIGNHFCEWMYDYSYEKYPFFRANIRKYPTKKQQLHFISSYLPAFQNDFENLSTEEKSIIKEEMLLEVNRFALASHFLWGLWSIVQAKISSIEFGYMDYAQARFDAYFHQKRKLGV

SMILES: Cc1ccc(NC(=O)c2cccc(C(F)(F)F)c2)cc1N1Cc2cnc(Nc3ccc(N4CCN(CCCOc5cccc6c5C(=O)N(C5CCC(=O)NC5=O)C6=O)CC4)nc3)nc2N(C)C1=O (stereo not shown) [DB0662]
- logFC ([1]; experiment wp168): −0.3222

SMILES: Cc1ccc(NC(=O)c2cccc(C(F)(F)F)c2)cc1N1Cc2cnc(Nc3ccc(N4CCN(Cc5cn(CCCCCOc6cccc7c6C(=O)N(C6CCC(=O)NC6=O)C7=O)nn5)CC4)nc3)nc2N(C)C1=O (stereo not shown) [DB0646, N-(3-(7-((6-(4-((1-(5-((2-(2,6-Dioxopiperidin-3-yl)-1,3-dioxoisoindolin-4-yl)oxy)pentyl)-1H-1,2,3-triazol-4-yl)methyl)piperazin-1-v)pyridin-3-yl)amino)-1-methyl-2-oxo-1,4-dihydropyrimido[4,5-d]pyrimidin-3(2H)-yl)-4-methylphenyl)-3-(trifluoromethyl)benzamide]
- logFC ([1]; experiment wp152): −0.3979
- logFC ([1]; experiment wp160, 8 hr): −0.4303

SMILES: CN(C)C(=O)c1cc2cnc(Nc3ccc(N4CCN(CCCCNC(=O)COc5cccc6c5C(=O)N(C5CCC(=O)NC5=O)C6=O)CC4)cn3)nc2n1C1CCCC1 (stereo not shown) [BSJ.04.132]
- logFC ([2]; experiment wp084): −0.3222

SMILES: CC(C)S(=O)(=O)c1ccccc1Nc1nc(Nc2ccc(N3CCN(CCOCCOCCC(=O)NCCNc4cccc5c4CN(C4CCC(=O)NC4=O)C5=O)CC3)cc2)ncc1Cl (stereo not shown) [TL13.97]
- logFC ULK3 ([3]; experiment wp137): −0.3729
- logFC ULK3 (Q6PHR2-1) ([3]; experiment wp137): −0.3729

SMILES: CC(C)(C)c1nc(-c2cccc(NS(=O)(=O)c3c(F)cccc3F)c2F)c(-c2ccnc(NCCOCCNC(=O)CCOCCOCCNc3cccc4c3C(=O)N(C3CCC(=O)NC3=O)C4=O)n2)s1 (stereo not shown) [DD.03.106]
- logFC ([4]; experiment wp147, 2 uM): −0.5015
- logFC CDK1 ([4]; experiment wp147, 2 uM): −0.5015
- logFC ([4]; experiment wp147, 4 uM): −0.5416
- logFC CDK1 ([4]; experiment wp147, 4 uM): −0.5416

SMILES: Cc1cc(Nc2ncc(Br)c(Nc3cccc(F)c3C(N)=O)n2)ccc1S(=O)(=O)NCCOCCOCCOCCOCCNc1cccc2c1C(=O)N(C1CCC(=O)NC1=O)C2=O (stereo not shown) [TMX.02.174]
- logFC ([4]; experiment wp146): −1.629
- logFC CDK1 ([4]; experiment wp146): −1.629
- logFC ([5]; experiment wp146): −1.763
- logFC [5, 6]: −1.763

SMILES: NC(=O)c1c(F)cccc1Nc1nc(Nc2ccc(S(=O)(=O)NCCOCCOCCOCCOCCNc3cccc4c3C(=O)N(C3CCC(=O)NC3=O)C4=O)cc2)ncc1Br (stereo not shown) [TMX.02.138]
- logFC ([4]; experiment wp146): −1.641
- logFC CDK1 ([4]; experiment wp146): −1.641
- logFC ([5]; experiment wp146): −1.335
- logFC [5, 6]: −1.335

SMILES: CS(=O)(=O)Nc1cccc(-c2csc3cnc(Nc4ccc(N5CCN(CCOCCOCCOc6cccc7c6C(=O)N(C6CCC(=O)NC6=O)C7=O)CC5)cc4)nc23)c1 (stereo not shown) [RSS0628]
- logFC ULK3 ([3]; experiment wp045): −1.086
- logFC ULK3 (Q6PHR2-1) ([3]; experiment wp045): −1.086

SMILES: CNC(=O)c1ccccc1Nc1cc(Nc2ccc(N3CCN(CCOCCOCCNC(=O)CNc4cccc5c4C(=O)N(C4CCC(=O)NC4=O)C5=O)CC3)cc2OC)ncc1C(F)(F)F (stereo not shown) [MFH.5.103.1]
- logFC ([5]; experiment wp076): −2.784
- logFC ([5]; experiment wp076, direction down): −2.784

SMILES: CC(=O)c1c(C)c2cnc(Nc3ccc(N4CCN(CCOCCOCCOCCNC(=O)COc5cccc6c5C(=O)N(C5CCC(=O)NC5=O)C6=O)CC4)cn3)nc2n(C2CCCC2)c1=O (stereo not shown) [BSJ.03.123]
- logFC ([2]; experiment wp084): −0.3532

SMILES: CS(=O)(=O)Nc1cccc(-c2csc3cnc(Nc4ccc(N5CCN(CCCCCOc6cccc7c6C(=O)N(C6CCC(=O)NC6=O)C7=O)CC5)cc4)nc23)c1 (stereo not shown) [DB0614, N-(3-(2-((4-(4-(5-((2-(2,6-Dioxopiperidin-3-yl)-1,3-dioxoisoindolin-4-yl)oxy)pentyl)piperazin-1-yl)phenyl)amino)thieno[3,2-d]pyrimidin-7-yl)phenyl)methanesulfonamide]
- logFC ULK3 ([3]; experiment wp045): −0.9461
- logFC ULK3 ([3]; experiment wp117): −0.8307
- logFC ULK3 (Q6PHR2-1) ([3]; experiment wp045): −0.9461
- logFC ULK3 (Q6PHR2-1) ([3]; experiment wp117): −0.8307

SMILES: CC(C)(C)c1nc(-c2cccc(NS(=O)(=O)c3c(F)cccc3F)c2F)c(-c2ccnc(NCCOCCNC(=O)CCOCCOCCNc3cccc4c3CN(C3CCC(=O)NC3=O)C4=O)n2)s1 (stereo not shown) [DD.03.107]
- logFC ([2]; experiment wp147, 4 uM): −0.3418

SMILES: Cc1ncsc1-c1ccc([C@H](C)NC(=O)[C@@H]2C[C@@H](O)CN2C(=O)[C@@H](NC(=O)CCOCCOCCN2CCN(c3ccc(Nc4ncc(Cl)c(Nc5ccccc5S(=O)(=O)C(C)C)n4)cc3)CC2)C(C)(C)C)cc1 [FMF.06.098.1]
- logFC ([4]; experiment wp131): −0.3535
- logFC CDK1 ([4]; experiment wp131): −0.3535
- logFC ([1]; experiment wp108): −0.3716
- logFC ([1]; experiment wp131): −0.4457

SMILES: CC(C)S(=O)(=O)c1ccccc1Nc1nc(Nc2ccc(N3CCN(CCOCCNC(=O)CNc4cccc5c4C(=O)N(C4CCC(=O)NC4=O)C5=O)CC3)cc2)ncc1Cl (stereo not shown) [SK.3.91]
- logFC ULK3 (Q6PHR2-1) ([3]; Experiment wp160, 2 hr): −0.503
- logFC ULK3 (Q6PHR2-1) ([3]; Experiment wp172): −0.8151
- logFC ULK3 ([3]; experiment wp016, 1 uM): −1.03
- logFC ULK3 ([3]; experiment wp103): −0.9651
- logFC ULK3 ([3]; experiment wp105): −0.837
- logFC ULK3 ([3]; experiment wp133, 2 hr): −0.5817
- logFC ULK3 ([3]; experiment wp133, 4 hr): −1.062
- logFC ULK3 ([3]; experiment wp160, 2 hr): −0.503
- logFC ULK3 ([3]; experiment wp160, 4 hr): −0.9689
- logFC ULK3 ([3]; experiment wp172): −0.8151
- logFC ULK3 (Q6PHR2-1) ([3]; experiment wp016, 1 uM): −1.03
- logFC ULK3 (Q6PHR2-1) ([3]; experiment wp103): −0.9651
- logFC ULK3 (Q6PHR2-1) ([3]; experiment wp105): −0.837
- logFC ULK3 (Q6PHR2-1) ([3]; experiment wp133, 2 hr): −0.5817
- logFC ULK3 (Q6PHR2-1) ([3]; experiment wp133, 4 hr): −1.062
- logFC ULK3 (Q6PHR2-1) ([3]; experiment wp160, 4 hr): −0.9689
- logFC ([5]; experiment wp105): −2.057
- logFC ([5]; experiment wp105, direction down): −2.057
- logFC ([5]; experiment wp172): −2.227
- logFC ([5]; experiment wp172, direction down): −2.227

SMILES: O=C1CCC(N2C(=O)c3cccc(NCCCCCCCCN4CCC(NC(=O)c5[nH]ncc5NC(=O)c5c(Cl)cccc5Cl)CC4)c3C2=O)C(=O)N1 (stereo not shown) [MFH.5.126.1]
- logFC ([1]; experiment wp076): −0.4653

SMILES: CC(C)S(=O)(=O)c1ccccc1Nc1nc(Nc2ccc(N3CCN(CCOCCOCCNC(=O)CNc4cccc5c4C(=O)N(C4CCC(=O)NC4=O)C5=O)CC3)cc2)ncc1Cl (stereo not shown) [TL12.186]
- logFC ([1]; experiment wp131): −0.3954
- logFC ULK3 ([3]; experiment wp131): −1.074
- logFC ULK3 ([3]; experiment wp137): −1.174
- logFC ULK3 (Q6PHR2-1) ([3]; experiment wp131): −1.074
- logFC ULK3 (Q6PHR2-1) ([3]; experiment wp137): −1.174
